The values below come from ChEMBL document CHEMBL1154313, “Synthesis, antiproliferative, and pharmacokinetic properties of 3- and 17-double-modified analogs of 2-methoxyestradiol” (Bioorg Med Chem Lett, 2009).

Activity calls are given as the source filed them.

One series has as its system MDA-MB-231. As to the kind of experiment: Antiproliferative activity against human MDA-MB-231 cells after 48 hrs by WST1 assay. In kind it is functional, cell-based. Particulars: MDA-MB-231, 48 h. In general terms: Tetrazolium assays rely on reduction of a dye to a coloured formazan, in cell work by metabolically active cells.
By IC50 is commonly meant the concentration that gives 50% inhibition. In turn, `COc1cc2c(cc1NC(C)=O)CC[C@@H]1[C@@H]2CC[C@]2(C)CCC[C@@H]12` returned an IC50 of 9.25 µM.

For `C=C1CC[C@H]2[C@@H]3CCc4cc(N)c(OC)cc4[C@H]3CC[C@]12C`, the midpoint of inhibition, the IC50, lay at 2.11 µM.

The molecule `COc1cc2c(cc1N)CC[C@@H]1[C@@H]2CC[C@]2(C)C(=O)CC[C@@H]12` displayed an IC50 of 46.9 µM.

`C/C=C1\CC[C@H]2[C@@H]3CCc4cc(N)c(OC)cc4[C@H]3CC[C@]12C`: the IC50 was determined as 1.94 µM.

On to `COc1cc2c(cc1NC=O)CC[C@@H]1[C@@H]2CC[C@]2(C)CCC[C@@H]12`, for which the IC50 stood at 8.29 µM.

Molecule `CCNC(=O)c1cc2c(cc1OC)[C@H]1CC[C@]3(C)CCC[C@H]3[C@@H]1CC2` gave an IC50 of 53 µM.

The molecule `COc1cc2c(cc1C(N)=O)CC[C@@H]1[C@@H]2CC[C@]2(C)CCC[C@@H]12` returned an IC50 of 1.86 µM.

In turn, `COc1cc2c(cc1C(N)=O)CC[C@@H]1[C@@H]2CC[C@]2(C)C(=O)CC[C@@H]12` showed an IC50 of 2.2 µM.

For the molecule `COc1cc2c(cc1NC=O)CC[C@@H]1[C@@H]2CC[C@]2(C)C(=O)CC[C@@H]12`, inhibition was half-maximal at 1.22 µM (IC50).

For the molecule `COC(=O)Nc1cc2c(cc1OC)[C@H]1CC[C@]3(C)C(=O)CC[C@H]3[C@@H]1CC2`, it took 5.6 µM to reach half-maximal inhibition (IC50).

Regarding `COc1cc2c(cc1N)CC[C@@H]1[C@@H]2CC[C@]2(C)[C@@H](C)CC[C@@H]12`, 7.31 µM corresponded to half-maximal inhibition (IC50).

Another series has as its system HUVEC. In words: Ratio of 2ME2 IC50 to compound IC50 for antiangiogenic activity against HUVEC. In kind it is functional, Homo sapiens.
Details: not given
With `COc1cc2c(cc1NC=O)CC[C@@H]1[C@@H]2CC[C@]2(C)C(=O)CC[C@@H]12`, the “Ratio IC50” value came to 3.

A further series deals with HUVEC. In words: Ratio of compound IC50 to 2ME2 IC50 for antiangiogenic activity against HUVEC. In kind it is functional, Homo sapiens.
Details: not given
As for `COc1cc2c(cc1NC=O)CC[C@@H]1[C@@H]2CC[C@]2(C)CCC[C@@H]12`, the “Ratio IC50” value is reported as 8.

`COc1cc2c(cc1C(N)=O)CC[C@@H]1[C@@H]2CC[C@]2(C)CCC[C@@H]12`: the “Ratio IC50” value is on record as 8.

Take `COc1cc2c(cc1C(N)=O)CC[C@@H]1[C@@H]2CC[C@]2(C)C(=O)CC[C@@H]12`: the “Ratio IC50” value was 8.

Tested on in another series: not listed separately
As to the kind of experiment: Half life in CD1 mouse at 45 mg/m'2 of body surface, po administered as single dose. In kind it is ADME, organism-based. Particulars: in vivo.
The term half-life denotes the time needed for the level to fall by half in the phase considered. In turn, `COc1cc2c(cc1C(N)=O)CC[C@@H]1[C@@H]2CC[C@]2(C)CCC[C@@H]12` showed a half-life of 1.1 h.

A further series concerns HUVEC. In words: Antiangiogenic activity against HUVEC assessed as growth inhibition after 48 hrs by WST1 assay. The series is classed as functional, cell-based. The note with it: Homo sapiens.
Regarding `COc1cc2c(cc1NC(C)=O)CC[C@@H]1[C@@H]2CC[C@]2(C)CCC[C@@H]12`, the IC50 worked out at 1.68 µM.

In the case of `C=C1CC[C@H]2[C@@H]3CCc4cc(N)c(OC)cc4[C@H]3CC[C@]12C`, the IC50 stood at 1 µM.

For `COc1cc2c(cc1N)CC[C@@H]1[C@@H]2CC[C@]2(C)C(=O)CC[C@@H]12`, the IC50 came to 23.4 µM.

On to `C/C=C1\CC[C@H]2[C@@H]3CCc4cc(N)c(OC)cc4[C@H]3CC[C@]12C`, for which the IC50 was 0.72 µM.

Take `COc1cc2c(cc1NC=O)CC[C@@H]1[C@@H]2CC[C@]2(C)CCC[C@@H]12`: the IC50 came out at 5.8 µM.

With `CCNC(=O)c1cc2c(cc1OC)[C@H]1CC[C@]3(C)CCC[C@H]3[C@@H]1CC2`, the half-inhibitory concentration (IC50) was 38 µM.

`COc1cc2c(cc1C(N)=O)CC[C@@H]1[C@@H]2CC[C@]2(C)CCC[C@@H]12`: the half-maximal inhibitory concentration (IC50) came to 1.19 µM.

For the molecule `COc1cc2c(cc1C(N)=O)CC[C@@H]1[C@@H]2CC[C@]2(C)C(=O)CC[C@@H]12`, the IC50 was 5.46 µM.

On to `COc1cc2c(cc1NC=O)CC[C@@H]1[C@@H]2CC[C@]2(C)C(=O)CC[C@@H]12`, for which the concentration for half-maximal inhibition (IC50) was 0.53 µM.

With `COC(=O)Nc1cc2c(cc1OC)[C@H]1CC[C@]3(C)C(=O)CC[C@H]3[C@@H]1CC2`, the IC50 was 8.22 µM.

With `COc1cc2c(cc1N)CC[C@@H]1[C@@H]2CC[C@]2(C)[C@@H](C)CC[C@@H]12`, the half-maximal inhibitory concentration (IC50) is 2.65 µM.

The subject of a further series is MDA-MB-231. In words: Ratio of compound IC50 to 2ME2 IC50 for human MDA-MB-231 cells. The series is classed as functional.
Details: not given
For the molecule `COc1cc2c(cc1NC=O)CC[C@@H]1[C@@H]2CC[C@]2(C)CCC[C@@H]12`, the “Ratio IC50” value came to 10.

As to `COc1cc2c(cc1C(N)=O)CC[C@@H]1[C@@H]2CC[C@]2(C)CCC[C@@H]12`, the “Ratio IC50” value is recorded as 3.

`COc1cc2c(cc1NC=O)CC[C@@H]1[C@@H]2CC[C@]2(C)C(=O)CC[C@@H]12`: the “Ratio IC50” value turned out to be 10.

Tested on in the next series: not listed separately
As to the kind of experiment: Cmax in CD1 mouse at 45 mg/m'2 of body surface, po administered as single dose. The series is classed as ADME, organism-based. Further details: route oral. Particulars: in vivo.
A word on the Cmax: it is the highest concentration seen after dosing. As for `COc1cc2c(cc1C(N)=O)CC[C@@H]1[C@@H]2CC[C@]2(C)CCC[C@@H]12`, the Cmax was determined as 504 nM.

Tested on in a further series: not listed separately
As to the kind of experiment: AUC (0 to infinity) in CD1 mouse at 45 mg/m'2 of body surface, po administered as single dose. The series is classed as ADME, organism-based. The note with it: plasma. Further details: time infinity, route oral.
Broadly, the AUC(0-inf) is the area under the concentration-time curve extrapolated to infinity. The low end stands for low exposure, the high end for high exposure. In the case of `COc1cc2c(cc1C(N)=O)CC[C@@H]1[C@@H]2CC[C@]2(C)CCC[C@@H]12`, the AUC(0-inf) worked out at 2.53 µM·h.

Another series deals with MCF7. As to the kind of experiment: Antiproliferative activity against human MCF7 cells after 48 hrs by WST1 assay. The series is classed as functional, cell-based.
Details: not given
`COc1cc2c(cc1NC(C)=O)CC[C@@H]1[C@@H]2CC[C@]2(C)CCC[C@@H]12`: the result was Active.

`C=C1CC[C@H]2[C@@H]3CCc4cc(N)c(OC)cc4[C@H]3CC[C@]12C`: the result was Active.

As for `COc1cc2c(cc1N)CC[C@@H]1[C@@H]2CC[C@]2(C)C(=O)CC[C@@H]12`, the outcome was Active.

`C/C=C1\CC[C@H]2[C@@H]3CCc4cc(N)c(OC)cc4[C@H]3CC[C@]12C`: the outcome was Active.

`COc1cc2c(cc1NC=O)CC[C@@H]1[C@@H]2CC[C@]2(C)CCC[C@@H]12`: the result was Active.

Turning to `CCNC(=O)c1cc2c(cc1OC)[C@H]1CC[C@]3(C)CCC[C@H]3[C@@H]1CC2`, the result was Active.

Take `COc1cc2c(cc1C(N)=O)CC[C@@H]1[C@@H]2CC[C@]2(C)CCC[C@@H]12`: the result was Active.

For `COc1cc2c(cc1C(N)=O)CC[C@@H]1[C@@H]2CC[C@]2(C)C(=O)CC[C@@H]12`, the outcome was Active.

`COc1cc2c(cc1NC=O)CC[C@@H]1[C@@H]2CC[C@]2(C)C(=O)CC[C@@H]12`: the outcome was Active.

For `COC(=O)Nc1cc2c(cc1OC)[C@H]1CC[C@]3(C)C(=O)CC[C@H]3[C@@H]1CC2`, the result was Active.

Take `COc1cc2c(cc1N)CC[C@@H]1[C@@H]2CC[C@]2(C)[C@@H](C)CC[C@@H]12`: the outcome was Active.
